Calls of active or inactive are those of the source. The rule behind the calls is not given here.
What was measured:
Rattus norvegicus [1] = assay: Antidiabetic activity in STZ-induced diabetic Wistar rat assessed as body weight at 15 mg/kg, po administered on day 7 post STZ challenge measured immediately post dosage (reference value: 319.4 +/- 6.9 g); type: functional
[2] = Toxicity in STZ-induced diabetic Wistar rat liver assessed as macroscopic pathologic lesions at 15 mg/kg, po administered for 15 days; type: organism-based; conditions: in vivo, 360 h
[3] = Mutagenicity in Salmonella typhimurium TA102 assessed as mutagenic index at 50 uM/plate after 48 hrs in presence of S9 fraction by Ames test relative to control; type: toxicity, subcellular; conditions: salmonella enterica subsp. enterica serovar typhimurium, s9, 48 h
[4] = Mutagenicity in Salmonella typhimurium TA100 assessed as mutagenic index at 17.30 uM/plate after 48 hrs in presence of S9 fraction by Ames test relative to control; type: toxicity, subcellular; conditions: salmonella enterica subsp. enterica serovar typhimurium, s9, 48 h, 17.3 µM
[5] = Mutagenicity in Salmonella typhimurium TA102 assessed as mutagenic index at 17.30 uM/plate after 48 hrs in absence of S9 fraction by Ames test relative to control; type: toxicity; conditions: salmonella enterica subsp. enterica serovar typhimurium, s9, 48 h, 17.3 µM
[6] = Mutagenicity in Salmonella typhimurium TA98 assessed as mutagenic index at 50 uM/plate after 48 hrs in presence of S9 fraction by Ames test relative to control; type: toxicity, subcellular; conditions: salmonella enterica subsp. enterica serovar typhimurium, s9, 48 h
Rattus norvegicus [7] = assay: Antidiabetic activity in STZ-induced diabetic Wistar rat assessed as body weight at 15 mg/kg, po administered for 15 days post STZ challenge measured on day 21 (reference value: 319.4 +/- 6.9 g); type: functional
[8] = Mutagenicity in Salmonella typhimurium TA102 assessed as mutagenic index at 17.30 uM/plate after 48 hrs in presence of S9 fraction by Ames test relative to control; type: toxicity, subcellular; conditions: salmonella enterica subsp. enterica serovar typhimurium, s9, 48 h, 17.3 µM
[9] = Genotoxicity in BALB/c mouse blood at 300 mg/kg after 48 hrs by micronucleus assay; type: toxicity, organism-based; conditions: in vivo
[10] = Mutagenicity in Salmonella typhimurium TA98 assessed as mutagenic index at 100 uM/plate after 48 hrs in absence of S9 fraction by Ames test relative to control; type: toxicity; conditions: salmonella enterica subsp. enterica serovar typhimurium, s9, 48 h
[11] = Mutagenicity in Salmonella typhimurium TA102 assessed as mutagenic index at 8.65 uM/plate after 48 hrs in presence of S9 fraction by Ames test relative to control; type: toxicity, subcellular; conditions: salmonella enterica subsp. enterica serovar typhimurium, s9, 48 h
[12] = Mutagenicity in Salmonella typhimurium TA102 assessed as mutagenic index at 50 uM/plate after 48 hrs in absence of S9 fraction by Ames test relative to control; type: toxicity; conditions: salmonella enterica subsp. enterica serovar typhimurium, s9, 48 h
Rattus norvegicus [13] = assay: Antidiabetic activity in STZ-induced diabetic Wistar rat assessed as increase in fasting blood glucose level at 15 mg/kg, po administered for 15 days post STZ challenge measured on day 21 by glucometry; type: functional
Rattus norvegicus [14] = assay: Antidiabetic activity in STZ-induced diabetic Wistar rat assessed as change in fasting blood glucose level at 15 mg/kg, po administered for 7 days post STZ challenge measured on day 14 by glucometry (reference value: 72.90 +/- 5.2 mg/dl); type: functional
Rattus norvegicus [15] = assay: Antidiabetic activity in STZ-induced diabetic Wistar rat blood assessed as LDL level at 15 mg/kg, po administered for 15 days (reference value: 23.11 +/- 9.82 mg/dl); type: functional
Rattus norvegicus [16] = assay: Antidiabetic activity in STZ-induced diabetic Wistar rat blood assessed as cholesterol level at 15 mg/kg, po administered for 15 days (reference value: 80.09 +/- 9.35 mg/dl); type: functional
Rattus norvegicus [17] = assay: Antidiabetic activity in STZ-induced diabetic Wistar rat assessed as effect on islets of langerhans morphology at 15 mg/kg, po administered for 15 days by fluorescence microscopy; type: functional, organism-based
[18] = Mutagenicity in Salmonella typhimurium TA100 assessed as mutagenic index at 34.60 uM/plate after 48 hrs in presence of S9 fraction by Ames test relative to control; type: toxicity, subcellular; conditions: salmonella enterica subsp. enterica serovar typhimurium, s9, 48 h, 34.6 µM
[19] = Mutagenicity in Salmonella typhimurium TA102 assessed as mutagenic index at 100 uM/plate after 48 hrs in absence of S9 fraction by Ames test relative to control; type: toxicity; conditions: salmonella enterica subsp. enterica serovar typhimurium, s9, 48 h
[20] = Mutagenicity in Salmonella typhimurium TA102 assessed as mutagenic index at 34.60 uM/plate after 48 hrs in absence of S9 fraction by Ames test relative to control; type: toxicity; conditions: salmonella enterica subsp. enterica serovar typhimurium, s9, 48 h, 34.6 µM
[21] = Mutagenicity in Salmonella typhimurium TA98 assessed as mutagenic index at 8.65 uM/plate after 48 hrs in presence of S9 fraction by Ames test relative to control; type: toxicity, subcellular; conditions: salmonella enterica subsp. enterica serovar typhimurium, s9, 48 h
[22] = Mutagenicity in Salmonella typhimurium TA102 assessed as mutagenic index at 100 uM/plate after 48 hrs in presence of S9 fraction by Ames test relative to control; type: toxicity, subcellular; conditions: salmonella enterica subsp. enterica serovar typhimurium, s9, 48 h
Rattus norvegicus [23] = assay: Antidiabetic activity in STZ-induced diabetic Wistar rat assessed as change in fasting blood glucose level at 15 mg/kg, po administered for 15 days post STZ challenge measured on day 21 by glucometry (reference value: 72.90 +/- 5.2 mg/dl); type: functional
[24] = Toxicity in STZ-induced diabetic Wistar rat kidney assessed as macroscopic pathologic lesions at 15 mg/kg, po administered for 15 days; type: organism-based; conditions: in vivo, 360 h
[25] = Mutagenicity in Salmonella typhimurium TA100 assessed as mutagenic index at 8.65 uM/plate after 48 hrs in presence of S9 fraction by Ames test relative to control; type: toxicity, subcellular; conditions: salmonella enterica subsp. enterica serovar typhimurium, s9, 48 h
[26] = Mutagenicity in Salmonella typhimurium TA100 assessed as mutagenic index at 17.30 uM/plate after 48 hrs in absence of S9 fraction by Ames test relative to control; type: toxicity; conditions: salmonella enterica subsp. enterica serovar typhimurium, s9, 48 h, 17.3 µM
Rattus norvegicus [27] = assay: Antidiabetic activity in STZ-induced diabetic Wistar rat assessed as decrease in blood glucose level at 15 mg/kg, po administered for 15 days post STZ challenge measured on day 21 by glucometry relative to control; type: functional; set-up: scale not given: the % may be the effect or the level left
Rattus norvegicus [28] = assay: Antioxidant activity in STZ-induced diabetic Wistar rat liver assessed as catalase level measured as H2O2 consumption per mg of protein at 15 mg/kg, po administered for 15 days (reference value: 68.9 +/- 11.1 microM/min); type: functional
Rattus norvegicus [29] = assay: Antidiabetic activity in STZ-induced diabetic Wistar rat assessed as change in fasting blood glucose level at 15 mg/kg, po administered on day 7 post STZ challenge measured immediately post dosage by glucometry (reference value: 72.90 +/- 5.2 mg/dl); type: functional
[30] = Mutagenicity in Salmonella typhimurium TA100 assessed as mutagenic index at 50 uM/plate after 48 hrs in presence of S9 fraction by Ames test relative to control; type: toxicity, subcellular; conditions: salmonella enterica subsp. enterica serovar typhimurium, s9, 48 h
Rattus norvegicus [31] = assay: Antidiabetic activity in STZ-induced diabetic Wistar rat blood assessed as urea level at 15 mg/kg, po administered for 15 days (reference value: 62.98 +/- 6.21 mg/dl); type: functional
[32] = Mutagenicity in Salmonella typhimurium TA98 assessed as mutagenic index at 34.60 uM/plate after 48 hrs in presence of S9 fraction by Ames test relative to control; type: toxicity, subcellular; conditions: salmonella enterica subsp. enterica serovar typhimurium, s9, 48 h, 34.6 µM
[33] = Mutagenicity in Salmonella typhimurium TA100 assessed as mutagenic index at 100 uM/plate after 48 hrs in presence of S9 fraction by Ames test relative to control; type: toxicity, subcellular; conditions: salmonella enterica subsp. enterica serovar typhimurium, s9, 48 h
Rattus norvegicus [34] = assay: Antidiabetic activity in STZ-induced diabetic Wistar rat blood assessed as creatinine level at 15 mg/kg, po administered for 15 days (reference value: 0.56 +/- 0.03 mg/dl); type: functional

Structure (SMILES): CC(=O)O[C@@H]1c2c(ccc3ccc(=O)oc23)OC(C)(C)[C@@H]1OC(C)=O (relative stereo) [QUIANHUCOUMARIN D]
- Activity (Rattus norvegicus [1]): 335.3 g
- Activity [2]: Non-Toxic
- Ratio [3]: 1.2
- Ratio [4]: 0.9
- Ratio [5]: 0.7
- Ratio [6]: 1.1
- Activity (Rattus norvegicus [7]): 365.1 g
- Ratio [8]: 1.2
- Activity [9]: Non-Toxic
- Ratio [10]: 0.4
- Ratio [11]: 0.8
- Ratio [12]: 1.1
- Activity (Rattus norvegicus [13]): 55.35 mg/dL
- Activity (Rattus norvegicus [14]): 280.7 mg/dL
- Activity (Rattus norvegicus [15]): 22.38 mg/dL
- Activity (Rattus norvegicus [16]): 70.84 mg/dL
- Activity (Rattus norvegicus [17]): Active
- Ratio [18]: 0.8
- Ratio [19]: 0.8
- Ratio [20]: 1
- Ratio [21]: 1.1
- Ratio [22]: 0.9
- Activity (Rattus norvegicus [23]): 128.3 mg/dL
- Activity [24]: Non-Toxic
- Ratio [25]: 0.9
- Ratio [26]: 1
- Activity (Rattus norvegicus [27]): 60.9%
- Activity (Rattus norvegicus [28]): 94.8 µM/min
- Activity (Rattus norvegicus [29]): 363.2 mg/dL
- Ratio [30]: 0.9
- Activity (Rattus norvegicus [31]): 42.04 mg/dL
- Ratio [32]: 1.2
- Ratio [33]: 1
- Activity (Rattus norvegicus [34]): 0.51 mg/dL

Source: ChEMBL document CHEMBL4477224, “Antidiabetic effect, antioxidant activity, and toxicity of 3',4'-Di-O-acetyl-cis-khellactone in Streptozotocin-induced diabetic rats” (Bioorg Med Chem Lett, 2016)
